Experimental findings from patent US11407719B2, “Anti-inflammatory agents” (Resverlogix Corp., priority 2009, dated 2022) are described below.

One assay concerns hIL-6 mRNA. In words: Quantification of hIL-6 mRNA. The assay is classed as cell-based, human. The arrangement: key: Active: an active compound is one that causes a ≥20% inhibition in IL-6 mRNA at a concentration less than or equal to 10 μM. Particulars: IL-6 mRNA by real-time PCR; differentiated U937 cells, 1 h pretreatment, lipopolysaccharide stimulation 3 h; concentration ≤10 μM. Here is the method:
In this example, […] in tissue culture cells was quantitated to measure the transcriptional inhibition of hIL-6 when treated with a compound of the invention.
A human leukemic monocyte lymphoma cell line (U937) was plated (3.2×10^5 cells per well) in a 96-well plate in 100 μL RPMI-1640, and differentiated for 3 days prior to the addition of the compound of interest. The cells were pretreated for 1 h with the test compound prior to stimulation with lipolysaccharide from Escherichia coli. The cells were incubated at 37° C. for 3 h before the cells were harvested. At time of harvest, the spent media was removed from the cells and the cells were rinsed in 200 μL PBS. Cell lysis solution (70 μL) was added the cells in each well and incubated for 5-10 min at room temperature, to allow for complete cell lysis and detachment. mRNA was then prepared using the “mRNA Catcher PLUS plate” (Invitrogen), according to the protocol supplied. After the last wash, as much wash buffer as possible was aspirated without allowing the wells to dry. Elution buffer (E3, 70 μL) was then added to each well. mRNA was then eluted by incubating the mRNA Catcher PLUS plate with Elution Buffer for 5 min at 68° C. and then immediately placing the plate on ice.
The eluted mRNA isolated was then used in a one-step quantitative real-time PCR reaction, using components of the Ultra Sense Kit together with Applied Biosystems primer-probe mixes. Real-time PCR data was analyzed, normalizing the Ct values for hIL-6 to an internal control, prior to determining the fold induction of each unknown sample, relative to the control.
In general terms: Real-time PCR tracks product formation cycle by cycle.

For another assay, the system named is VCAM-1 mRNA. In words: Quantification of hVCAM mRNA. The class given is cell-based, human. Further details: key: Active: an active compound is one that causes a ≥20% inhibition in VCAM-1 mRNA at a concentration less than or equal to 10 μM; -1 mRNA at a concentration less than or equal to 10 μM. Particulars: VCAM-1 mRNA by real-time PCR; HUVECs, 1 h pretreatment, tumor necrosis factor-α stimulation 24 h; concentration ≤10 μM. Here is the method:
In this example, […] in tissue culture cells was quantitated to measure the transcriptional inhibition of hVCAM when treated with a compound of the invention.
Human umbilical vein endothelial cells (HUVECs) were plated in a 96-well plate (4.0×10^3 cells/well) in 100 μL EGM media and incubated for 24 h prior to the addition of the compound of interest. The cells were pretreated for 1 h with the test compound prior to stimulation with tumor necrosis factor-α. The cells were incubated for an additional 24 h before the cells were harvested. At time of harvest, the spent media was removed from the HUVECs and rinsed in 200 μL PBS. Cell lysis solution (70 μL) was then added the cells in each well and incubated for ˜5-10 min at room temperature, to allow for complete cell lysis and detachment. mRNA was then prepared using the “mRNA Catcher PLUS plate” (Invitrogen), according to the protocol supplied. After the last wash, as much wash buffer as possible was aspirated without allowing the wells to dry. Elution buffer (E3, 70 μL) was then added to each well. mRNA was then eluted by incubating the mRNA Catcher PLUS plate with elution buffer for 5 min at 68° C. and then immediately placing the plate on ice.
The eluted mRNA so isolated was then used in a one-step quantitative real-time PCR reaction, using components of the Ultra Sense Kit together with Applied Biosystems primer-probe mixes. Real-time PCR data was analyzed, normalizing the Ct values for hVCAM to an internal control, prior to determining the fold induction of each unknown sample, relative to the control.

With `COc1cc(OC)c2c(=O)[nH]c(-c3cc(C)c(OCCN4C(=O)c5ccccc5C4=O)c(C)c3)nc2c1` [2-(2-(4-(5,7-dimethoxy-4-oxo-3,4-dihydroquinazolin-2-yl)-2,6-dimethylphenoxy)ethyl)isoindoline-1,3-dione], the “Inhibition of IL-6 expression” value in the assay on hIL-6 mRNA was “Active”. For the same compound, the “Inhibition of VCAM-1 expression” value in the assay on VCAM-1 mRNA is “Active”.

In the case of `COc1cc(OC)c2c(=O)[nH]c(-c3ccc(N4CCC(NC(C)=O)C4)cc3)nc2c1` (stereo not shown) [N-(1-(4-(5,7-Dimethoxy-4-oxo-3,4-dihydroquinazolin-2-yl)phenyl)pyrrolidin-3-yl)acetamide], the “Inhibition of IL-6 expression” value in the assay with hIL-6 mRNA is recorded as “Active”. In the assay with VCAM-1 mRNA, the “Inhibition of VCAM-1 expression” value is given as “Active”.

For the compound `COc1cc(OC)c2c(=O)[nH]c(-c3cc(C)c(OCCN4CCCC4)c(C)c3)nc2c1` [2-(3,5-dimethyl-4-(2-(pyrrolidin-1-yl)ethoxy)phenyl)-5,7-dimethoxyquinazolin-4(3H)-one], the “Inhibition of IL-6 expression” value with hIL-6 mRNA is given as “Active”. Besides, in the assay on VCAM-1 mRNA, the “Inhibition of VCAM-1 expression” value was “Active”.

On to `COc1cc(OC)c2c(=O)[nH]c(-c3ccc(N4CCCN(C)CC4)cc3)nc2c1` [5,7-Dimethoxy-2-(4-(4-methyl-1,4-diazepan-1-yl)phenyl)quinazolin-4(3H)-one], for which the “Inhibition of IL-6 expression” value in the assay with hIL-6 mRNA is listed as “Active”. The “Inhibition of VCAM-1 expression” value in the assay with VCAM-1 mRNA is reported as “Active”.

Turning to `COc1cc(OC)c2c(=O)[nH]c(-c3ccc4[nH]c(CN(C)C)cc4c3)nc2c1` [2-(2-((Dimethylamino)methyl)-1H-indol-5-yl)-5,7-dimethoxyquinazolin-4(3H)-one], the “Inhibition of IL-6 expression” value with hIL-6 mRNA was “Active”. Moreover, the “Inhibition of VCAM-1 expression” value in the assay on VCAM-1 mRNA was “Active”.

Turning to `COc1cccc(-c2nc3cc(OC)cc(OC)c3c(=O)[nH]2)c1` [5,7-Dimethoxy-2-(3-methoxyphenyl)quinazolin-4(3H)-one], in the assay with hIL-6 mRNA, the “Inhibition of IL-6 expression” value was “Active”. Besides, the “Inhibition of VCAM-1 expression” value in the assay on VCAM-1 mRNA was “Active”.

Take `COc1cc(OC)c2c(=O)[nH]c(-c3ccc(N4CCN(C(C)C)CC4)cc3)nc2c1` [2-(4-(4-Isopropylpiperazin-1-yl)phenyl)-5,7-dimethoxyquinazolin-4(3H)-one]: the “Inhibition of IL-6 expression” value in the assay with hIL-6 mRNA is recorded as “Active”. For the same compound, the “Inhibition of VCAM-1 expression” value in the assay with VCAM-1 mRNA is “Active”.

For `COc1cc2nc(-c3ccc(N(C)C)c4ccccc34)[nH]c(=O)c2cc1OC` [2-(4-(dimethylamino)naphthalen-1-yl)-6,7-dimethoxyquinazolin-4(3H)-one], in the assay with hIL-6 mRNA, the “Inhibition of IL-6 expression” value is “Active”. Further, in the assay with VCAM-1 mRNA, the “Inhibition of VCAM-1 expression” value is “Active”.

Regarding `COc1cc(OC)c2c(=O)[nH]c(-c3ccc(N4CCNCC4)cc3)nc2c1` [5,7-Dimethoxy-2-(4-(piperazin-1-yl)phenyl)quinazolin-4(3H)-one], the “Inhibition of IL-6 expression” value in the assay on hIL-6 mRNA is on record as “Active”. Moreover, the “Inhibition of VCAM-1 expression” value in the assay with VCAM-1 mRNA is given as “Active”.

Consider `COc1cc(OC)c2c(=O)[nH]c(-c3ccc4[nH]c(CN5CCCC5)cc4c3)nc2c1` [5,7-Dimethoxy-2-(2-(pyrrolidin-1-ylmethyl)-1H-indol-5-yl)quinazolin-4(3H)-one], for which the “Inhibition of IL-6 expression” value in the assay with hIL-6 mRNA was “Active”. Moreover, in the assay on VCAM-1 mRNA, the “Inhibition of VCAM-1 expression” value is “Active”.

For `COc1cc(OC)c2c(=O)[nH]c(-c3cc(C)c(OCCN4Cc5ccccc5C4)c(C)c3)nc2c1` [2-(4-(2-(Isoindolin-2-yl)ethoxy)-3,5-dimethylphenyl)-5,7-dimethoxyquinazolin-4(3H)-one], the “Inhibition of IL-6 expression” value in the assay on hIL-6 mRNA is given as “Active”. The “Inhibition of VCAM-1 expression” value with VCAM-1 mRNA was “Active”.

For `COc1cc(OC)c2c(=O)[nH]c(-c3ccc(N4CCN(C(=O)c5cnn(C)c5Cl)CC4)cc3)nc2c1` [2-(4-(4-(5-Chloro-1-methyl-1H-pyrazole-4-carbonyl)piperazin-1-yl)phenyl)-5,7-dimethoxyquinazolin-4(3H)-one], the “Inhibition of IL-6 expression” value with hIL-6 mRNA was “Active”. The “Inhibition of VCAM-1 expression” value in the assay on VCAM-1 mRNA is “Active”.

As to `COc1cc(OC)c2c(=O)[nH]c(-c3ccc(N4CCN(C(=O)c5cc(Cl)sc5Cl)CC4)cc3)nc2c1` [2-(4-(4-(2,5-Dichlorothiophene-3-carbonyl)piperazin-1-yl)phenyl)-5,7-dimethoxyquinazolin-4(3H)-one], the “Inhibition of IL-6 expression” value in the assay on hIL-6 mRNA is “Active”. In the assay with VCAM-1 mRNA, the “Inhibition of VCAM-1 expression” value is reported as “Active”.

For the compound `COc1cc(OC)c2c(=O)[nH]c(-c3ccc(N4CCN(C(C)=O)CC4)cc3)nc2c1` [2-(4-(4-Acetylpiperazin-1-yl)phenyl)-5,7-dimethoxyquinazolin-4(3H)-one], the “Inhibition of IL-6 expression” value with hIL-6 mRNA is listed as “Active”. The “Inhibition of VCAM-1 expression” value in the assay on VCAM-1 mRNA is reported as “Active”.

Turning to `COc1cc(OC)c2c(=O)[nH]c(-c3cc(C)c(OCCN4C(=O)CCC4=O)c(C)c3)nc2c1` [1-(2-(4-(5,7-Dimethoxy-4-oxo-3,4-dihydroquinazolin-2-yl)-2,6-dimethylphenoxy)ethyl)pyrrolidine-2,5-dione], the “Inhibition of IL-6 expression” value in the assay on hIL-6 mRNA is “Active”. Moreover, in the assay with VCAM-1 mRNA, the “Inhibition of VCAM-1 expression” value was “Active”.

Consider `COc1cc(OC)c2c(=O)[nH]c(-c3ccc(N4C[C@@H](C)N[C@@H](C)C4)cc3)nc2c1` [2-(4-((3R,5S)-3,5-Dimethylpiperazin-1-yl)phenyl)-5,7-dimethoxyquinazolin-4(3H)-one], for which the “Inhibition of IL-6 expression” value with hIL-6 mRNA is “Active”. In the assay on VCAM-1 mRNA, the “Inhibition of VCAM-1 expression” value is recorded as “Active”.

Turning to `COc1cc(OC)c2c(=O)[nH]c(-c3cc(C)c(OC[C@@H]4CCC(=O)N4)c(C)c3)nc2c1` [(S)-2-(3,5-Dimethyl-4-((5-oxopyrrolidin-2-yl)methoxy)phenyl)-5,7-dimethoxyquinazolin-4(3H)-one], the “Inhibition of IL-6 expression” value in the assay with hIL-6 mRNA is given as “Active”. The “Inhibition of VCAM-1 expression” value with VCAM-1 mRNA is “Active”.

As for `COc1cc(OC)c2c(=O)[nH]c(-c3ccc(N4CCN(C(=O)c5ccccc5)CC4)cc3)nc2c1` [2-(4-(4-Benzoylpiperazin-1-yl)phenyl)-5,7-dimethoxyquinazolin-4(3H)-one], in the assay on hIL-6 mRNA, the “Inhibition of IL-6 expression” value is recorded as “Active”. Also, the “Inhibition of VCAM-1 expression” value in the assay with VCAM-1 mRNA is on record as “Active”.

Take `COc1cc(OC)c2c(=O)[nH]c(-c3ccc4[nH]c(CCN5CCCC5)cc4c3)nc2c1` [5,7-Dimethoxy-2-(2-(2-(pyrrolidin-1-yl)ethyl)-1H-indol-5-yl)quinazolin-4(3H)-one]: the “Inhibition of IL-6 expression” value in the assay on hIL-6 mRNA is given as “Active”. Besides, in the assay with VCAM-1 mRNA, the “Inhibition of VCAM-1 expression” value is on record as “Active”.

On to `COc1cc(OC)c2c(=O)[nH]c(-c3cc(C)c(OCCN4CCCCC4)c(C)c3)nc2c1` [2-(3,5-Dimethyl-4-(2-(piperidin-1-yl)ethoxy)phenyl)-5,7-dimethoxyquinazolin-4(3H)-one], for which, in the assay on hIL-6 mRNA, the “Inhibition of IL-6 expression” value is “Active”. Also, the “Inhibition of VCAM-1 expression” value in the assay on VCAM-1 mRNA is “Active”.

As for `COc1cc(OC)c2c(=O)[nH]c(-c3ccc(N4CCN(C(=O)c5ccc(F)cc5)CC4)cc3)nc2c1` [2-(4-(4-(4-Fluorobenzoyl)piperazin-1-yl)phenyl)-5,7-dimethoxyquinazolin-4(3H)-one], in the assay on hIL-6 mRNA, the “Inhibition of IL-6 expression” value is “Active”. Moreover, the “Inhibition of VCAM-1 expression” value in the assay with VCAM-1 mRNA is reported as “Active”.

In the case of `Cc1cc(-c2nc3cc(F)cc(N4CCCC4)c3c(=O)[nH]2)cc(C)c1OCCN1CCCC1` [2-(3,5-Dimethyl-4-(2-(pyrrolidin-1-yl)ethoxy)phenyl)-7-fluoro-5-(pyrrolidin-1-yl)quinazolin-4(3H)-one], the “Inhibition of IL-6 expression” value in the assay with hIL-6 mRNA is given as “Active”. In the assay on VCAM-1 mRNA, the “Inhibition of VCAM-1 expression” value is “Active”.

On to `COCCOc1cc(OC)cc2nc(-c3cc(C)nc(C)c3)[nH]c(=O)c12` [2-(2,6-Dimethylpyridin-4-yl)-7-methoxy-5-(2-methoxyethoxy)quinazolin-4(3H)-one], for which, in the assay with hIL-6 mRNA, the “Inhibition of IL-6 expression” value is on record as “Active”. For the same compound, the “Inhibition of VCAM-1 expression” value in the assay with VCAM-1 mRNA was “Inactive”.
